# Test system: mpkCCDc14 cell line
# Assay: Short-circuit current electrophysiology in renal principal cells
# Type: cell-based, mouse
# Details: FIG. 4
# Excerpt: Described herein is the method of short-circuit electrophysiology used for detailed examination of the nature of the ion channels stimulated in response to cyst fluid. These studies utilized mouse principal cells of the kidney cortical collecting duct, clone 4 (mpkCCDc14) cell line. These cells have the characteristics of the principal cell type found in the distal portion of the renal nephron. Principal cells often line renal cysts. […] This finding is in agreement with Granthan et al. However, the activation of other ion channels by the fluid was also discovered. When examined in real time, the nature of channel activity by the cyst was quite different than the activity seen in response to forskolin, as shown in FIG. 1. These studies indicate that there are components found in cyst fluid that stimulate multiple ion transporters, which together cause electrolyte and fluid secretion into the cyst lumen.
# Electrophysiological testing of effects NASPA on short circuit current. Cell preparations were pre-incubated with NASPA (10 μM) or diluent (DMSO) for 15 minutes prior to administration of 10% fetal bovine serum (FBS). FBS was administered serosally at time zero.
# Electrophysiological testing of effects VPC 32183 on LPA induced increase in short circuit current. […]
compound,measurement,setting,value
CCCCCCCCCCCCCCCC(=O)N[C@@H](COP(=O)(O)O)C(=O)O [NASPA],effect on response to LPA added as part of fetal bovine serum (short circuit current),"NASPA 10 μM pre-incubated 15 minutes, 10% FBS added serosally at time zero, versus diluent (DMSO)",antagonized the LPA added as part of the fetal bovine serum
same,effect on short circuit current when first added,"NASPA 10 μM, 15 minutes pre-incubation before 10% FBS",appeared to act like an agonist when first added
